Experimental data as given in patent publication US20170216297A1, “EFFICIENT INHIBITION OF HSP27” (TECHNISCHE UNIVERSITAET DRESDEN, priority 2014, published 2017).
pKd: −log10 of the molar value.

Legend:
U937 cells = assay: Development of resistance to bortezomib in U937 cells; type: cell-based
Experimental: For this purpose, U937 cells (histiocytic lymphoma) were cultured in DMEM culture medium (+10% FCS) at 37° C., 5% CO2 in an H2O-saturated atmosphere. 100,000 cells/ml were seeded and incubated with the cytostatic agent bortezomib (0.1 ng/ml) and the respective test substance (dosage in the current experiment: 1 μM/L acepromazine). The reference substance, BVDU, was employed at a concentration of 30 μM/L. The cells were in each case passaged before the cell count reached 1,000,000 cells/ml. At each passage, 100,000 cells/ml were again seeded and the dose of the cytostatic agent bortezomib was increased stepwise (0.1 ng/mL or 0.05 ng/mL). The concentration of the test substances remained constant. As a result of the stepwise increase in the dosage of the cytostatic agent, resistance developed in the U937 cells. The development of resistance is prevented or inhibited in the case of a positively tested HSP27 inhibitor. The experiments from Example 6 were repeated in the same way, wherein U937 cells (histiocytic lymphoma) are cultured in DMEM culture medium (+10% FCS) at 37° C., 5% CO2 in an H2O— saturated atmosphere. 100,000 cells/ml were seeded and incubated with an initial concentration of 0.2 ng/ml of the cytostatic agent bortezomib and both without an inhibitor and with acepromazine as an HSP27 inhibitor at a concentration of 1 μM/L. The reference substance, BVDU, was employed at a concentration of 30 μM/L. The cells were passaged in each case before the cell count reached 1,000,000 cells/ml. At each passage, 100,000 cells/ml were again seeded and the dose of the cytostatic agent bortezomib was increased stepwise by 0.1 ng/mL. The concentration of the test substance and the reference substance remained constant. As a result of the stepwise increase in the dosage of the cytostatic agent, resistance developed in the U937 cells. The development of resistance is prevented or inhibited in the case of a positively tested HSP27 inhibitor. The cell line U-937 is a histiocytic lymphoma (DSMZ ACC 5). This cell line also responds to treatment with bortezomib, expresses HSP27 and develops resistance to bortezomib. Bortezomib is not the standard therapy for this lymphoma, but is being discussed as a possible therapeutic agent. U-937 cells were seeded with a cell count of 100,000 cells/ml in each case and regularly passaged. […] At the end of the experiment, 70,000 living cells per ml medium could be detected. For the treatment with 30 μmol/L BVDU, a final cell count of 250,000 cells/ml was detected whereas the final cell count in the culture without the addition of an HSP27 inhibitor amounted to 450,000 cells/ml. As a control, U-937 cells were treated with the respective test substances alone, FIG. 10b.

HSP27 [1] = target: T1, HSP27 (Homo sapiens, UniProt P04792); assay: Bio-layer interferometry (ForteBio Octet Red 384, biotinylated HSP27 on SSA sensors); type: binding; conditions: bio-layer interferometry; read-out: KD
T1 sequence (P04792 whole entry): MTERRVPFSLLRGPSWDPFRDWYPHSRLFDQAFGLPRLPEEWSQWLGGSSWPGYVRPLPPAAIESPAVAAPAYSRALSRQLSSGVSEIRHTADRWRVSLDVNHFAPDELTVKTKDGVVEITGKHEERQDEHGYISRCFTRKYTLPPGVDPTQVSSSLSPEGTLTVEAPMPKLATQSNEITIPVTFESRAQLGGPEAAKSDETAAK
Text: Bio-layer interferometry is a technique for detecting biomolecular interactions. It is an analytical technique that measures the optical interference of white light which is reflected by two surfaces: in each case, one surface consists of a layer of the immobilized target protein on the tip of the biosensor and one is an internal reference surface. The binding of ligands to the target protein alters the interference pattern and can be measured in real time.
For the measurements, an instrument of the ForteBio Octet Red 384 brand was used. The target protein HSP27 was biotinylated and bound to the appropriate sensors (SSA). […] The purine derivatives of general formula (I) or (II) pre-identified by means of in silico screening are employed for these measurements in a concentration range (KD) of between 333 μmol/L and 10 nmol/L.
For measurements by bio-layer interferometry, biotinylated HSP27 protein was first bound to Super-Streptavidin sensors (SSA, Fortebio). The loaded sensors were then incubated (“quenched”) with biocytin. As reference, unloaded SSA sensors were incubated with biocytin. In the case of a specific binding to HSP27 of the analyte to be measured, the loaded HSP27 sensor generates a stronger signal (response) than the concurrent reference sensor. After the “baseline” has been established by incubation with the reaction buffer (PBST 0.1% Tween 20 plus 3% DMSO), first the association and then the dissociation of the respective analyte is measured in real time. The analytes were measured in increasing concentrations in each case: 1.23-3.7-11.11-33.33-100-300 μM/l.

HSP27 [2] = target: T1, HSP27; assay: SpeedScreen gel filtration binding test (Sephadex G-25, detection by mass spectroscopy)
Text: For the experimental validation of low-molecular-weight compounds which act as potential HSP27 inhibitors according to the in silico prediction, a method based on gel filtration was employed. The method for detecting molecular bonds using gel filtration was described in 2004 as “SpeedScreen” [Muckenschnabel et al., 2004] and was adapted to meet the requirements of the invention. […] For the separation, PD SpinTraps G-25 from GE Healthcare were used. During the 2-minute centrifugation at 800×g (according to operating instructions), these columns allow molecules with a molecular weight of greater than or equal to 5000 g/mol to pass through, while smaller molecules are retained in the matrix. The target protein HSP27 has a molecular weight of 27000 g/mol and therefore passes through the matrix. […] Non-bound low-molecular-weight compounds are retained by the matrix. Molecules that have passed through the matrix can then be detected by mass spectroscopy. This enables “binders” to be differentiated from “non-binders”. For the experimental validation of low-molecular-weight compounds which act as potential HSP27 inhibitors according to the in silico prediction, a method based on gel filtration was employed. […] Molecules that have passed through the matrix can then be detected by mass spectroscopy. […]

In the case of CC(=O)c1ccc2c(c1)N(CCCN(C)C)c1ccccc1S2 [Acepromazine], the “living cells after the end of the experiment” value (U937 cells; Example 6, FIG. 2: bortezomib 0.1 to 0.5 ng/ml stepwise, +1 μM inhibitor, without inhibitor 790,000 cells/ml) was “no living cells were detectable”, the “development of resistance to bortezomib” value (U937 cells; Example 6, FIG. 2: bortezomib 0.1 to 0.5 ng/ml, +1 μM inhibitor) was “no development of resistance occurred” and the “living cells after the end of the experiment” value (U937 cells; Example 7, FIG. 3: bortezomib 0.2 to 0.4 ng/ml stepwise, +1 μM inhibitor, without inhibitor 230,000 cells/ml) was “no living cells were detectable”. For the same compound, the “development of resistance to bortezomib” value (U937 cells; Example 7, FIG. 3: bortezomib 0.2 to 0.4 ng/ml, +1 μM inhibitor) was “no development of resistance occurred”, the “development of resistance to bortezomib” value (U937 cells; Examples 17/18: bortezomib 0.1-0.5 ng/ml, plus 0.75 μmol/L inhibitor) was “significantly inhibited” and the pKd (HSP27 [1]) was 4.14. The “Binding to HSP27 by SpeedScreen (passage through the Sephadex G-25 matrix)” value (HSP27 [2]) was “tested positively”.
